Reference: ChEMBL document CHEMBL1201862, “PubChem BioAssay data set” (2004)
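Compound exposure: 48 hours, 5 concentrations, 96-well plates. GI50 = concentration required for 50% inhibition of growth.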 Active and inactive are the calls of the source. Cut-off read from the data, not from the text of the source: active = GI50 up to about 1.1 µM and inactive = higher.

Legend:
Assay in all cases: NCI anticancer screen, dose series, 48 h
786-0 = system: 786-0
A498 = system: A498
A549 = system: A549
ACHN = system: ACHN
BT-549 = system: BT-549
CAKI-1 = system: CAKI-1
CCRF-CEM = system: CCRF-CEM
COLO 205 = system: COLO 205
DU-145 = system: DU-145
EKVX = system: EKVX
HCC 2998 = system: HCC 2998
HCT-116 = system: HCT-116
HCT-15 = system: HCT-15
HL-60 = system: HL-60
HOP-62 = system: HOP-62
HOP-92 = system: HOP-92
HT-29 = system: HT-29
IGROV-1 = system: IGROV-1
KM12 = system: KM12
LOX IMVI = system: LOX IMVI
M14 = system: M14
MCF7 = system: MCF7
MDA-MB-231 = system: MDA-MB-231
MDA-MB-435 = system: MDA-MB-435
MDA-N = system: MDA-N
MOLT-4 = system: MOLT-4
Malme-3M = system: Malme-3M
NCI-H226 = system: NCI-H226
NCI-H23 = system: NCI-H23
NCI-H460 = system: NCI-H460
NCI-H522 = system: NCI-H522
NCI/ADR-RES = system: NCI/ADR-RES
OVCAR-3 = system: OVCAR-3
OVCAR-4 = system: OVCAR-4
OVCAR-5 = system: OVCAR-5
OVCAR-8 = system: OVCAR-8
PC-3 = system: PC-3
RPMI-8226 = system: RPMI-8226
RXF 393 = system: RXF 393
SF-295 = system: SF-295
SF-539 = system: SF-539
SK-MEL-28 = system: SK-MEL-28
SK-MEL-2 = system: SK-MEL-2
SK-MEL-5 = system: SK-MEL-5
SK-OV-3 = system: SK-OV-3
SN12C = system: SN12C
SNB-19 = system: SNB-19
SNB-75 = system: SNB-75
SR = system: SR
SW-620 = system: SW-620
U-251 = system: U-251
UACC-257 = system: UACC-257
UACC-62 = system: UACC-62
UO-31 = system: UO-31
Hs-578T = system: Hs-578T
K562 = system: K562
SF-268 = system: SF-268

`CN1C(=O)C(O)CC1c1ccccc1C(F)(F)F` (stereo not drawn) was tested, and the GI50 (786-0) was > 100 µM (inactive), the GI50 (A498) was > 100 µM (inactive) and the GI50 (A549) was > 100 µM (inactive). For the same compound, the GI50 (ACHN) was > 100 µM (inactive), the GI50 (BT-549) was > 100 µM (inactive) and the GI50 (CAKI-1) was > 100 µM (inactive). For the same compound, the GI50 (CCRF-CEM) was > 100 µM (inactive), the GI50 (COLO 205) was > 100 µM (inactive) and the GI50 (DU-145) was > 100 µM (inactive). For the same compound, the GI50 (EKVX) was > 100 µM (inactive), the GI50 (HCC 2998) was > 100 µM (inactive) and the GI50 (HCT-116) was > 100 µM (inactive). For the same compound, the GI50 (HCT-15) was greater than 100 µM, the GI50 (HL-60) was > 100 µM (inactive) and the GI50 (HOP-62) was > 100 µM (inactive). The GI50 (HOP-92) was > 100 µM (inactive), the GI50 (HT-29) was > 100 µM (inactive) and the GI50 (IGROV-1) was > 100 µM (inactive). For the same compound, the GI50 (KM12) was > 100 µM (inactive), the GI50 (LOX IMVI) was > 100 µM (inactive) and the GI50 (M14) was > 100 µM (inactive). For the same compound, the GI50 (MCF7) was > 100 µM (inactive), the GI50 (MDA-MB-231) was > 100 µM (inactive) and the GI50 (MDA-MB-435) was > 100 µM (inactive). The GI50 (MDA-N) was > 100 µM (inactive), the GI50 (MOLT-4) was > 100 µM (inactive) and the GI50 (Malme-3M) was > 100 µM (inactive). The GI50 (NCI-H226) was > 100 µM (inactive), the GI50 (NCI-H23) was > 100 µM (inactive) and the GI50 (NCI-H460) was > 100 µM (inactive). For the same compound, the GI50 (NCI-H522) was > 100 µM (inactive), the GI50 (NCI/ADR-RES) was > 100 µM (inactive) and the GI50 (OVCAR-3) was > 100 µM (inactive). The GI50 (OVCAR-4) was > 100 µM (inactive), the GI50 (OVCAR-5) was > 100 µM (inactive) and the GI50 (OVCAR-8) was > 100 µM (inactive). The GI50 (PC-3) was > 100 µM (inactive), the GI50 (RPMI-8226) was > 100 µM (inactive) and the GI50 (RXF 393) was > 100 µM (inactive). For the same compound, the GI50 (SF-295) was > 100 µM (inactive), the GI50 (SF-539) was > 100 µM (inactive) and the GI50 (SK-MEL-28) was > 100 µM (inactive). The GI50 (SK-MEL-2) was > 100 µM (inactive), the GI50 (SK-MEL-5) was > 100 µM (inactive) and the GI50 (SK-OV-3) was > 100 µM (inactive). For the same compound, the GI50 (SN12C) was > 100 µM (inactive), the GI50 (SNB-19) was > 100 µM (inactive) and the GI50 (SNB-75) was > 100 µM (inactive). For the same compound, the GI50 (SR) was > 10 µM (inactive), the GI50 (SW-620) was > 100 µM (inactive) and the GI50 (U-251) was > 100 µM (inactive). The GI50 (UACC-257) was > 100 µM (inactive), the GI50 (UACC-62) was > 100 µM (inactive) and the GI50 (UO-31) was > 100 µM (inactive).
For `Cc1ccccc1Nc1cn(COCc2ccccc2)c(=O)[nH]c1=O`, the GI50 (786-0) was > 100 µM (inactive), the GI50 (A498) was > 100 µM (inactive) and the GI50 (A549) was 81.3 µM (inactive). For the same compound, the GI50 (ACHN) was > 100 µM (inactive), the GI50 (BT-549) was 14.5 µM (inactive) and the GI50 (CAKI-1) was > 100 µM (inactive). For the same compound, the GI50 (CCRF-CEM) was 91.6 µM (inactive), the GI50 (COLO 205) was 50.9 µM (inactive) and the GI50 (DU-145) was 80.4 µM (inactive). The GI50 (EKVX) was 30.7 µM (inactive), the GI50 (HCC 2998) was > 100 µM (inactive) and the GI50 (HCT-116) was 49.7 µM (inactive). For the same compound, the GI50 (HCT-15) was greater than 100 µM, the GI50 (HL-60) was > 100 µM (inactive) and the GI50 (HOP-62) was > 100 µM (inactive). For the same compound, the GI50 (HOP-92) was > 100 µM (inactive), the GI50 (HT-29) was 48.5 µM (inactive) and the GI50 (Hs-578T) was 54.3 µM (inactive). For the same compound, the GI50 (IGROV-1) was 33 µM (inactive), the GI50 (K562) was > 100 µM (inactive) and the GI50 (KM12) was 57.5 µM (inactive). The GI50 (LOX IMVI) was 59.8 µM (inactive), the GI50 (M14) was > 100 µM (inactive) and the GI50 (MCF7) was > 100 µM (inactive). For the same compound, the GI50 (MDA-MB-435) was 85.3 µM (inactive), the GI50 (MDA-N) was > 100 µM (inactive) and the GI50 (MOLT-4) was 55.2 µM (inactive). For the same compound, the GI50 (NCI-H23) was 56.5 µM (inactive), the GI50 (NCI-H460) was 69.5 µM (inactive) and the GI50 (NCI-H522) was 40.2 µM (inactive). The GI50 (NCI/ADR-RES) was 40.2 µM (inactive), the GI50 (OVCAR-3) was 79.8 µM (inactive) and the GI50 (OVCAR-4) was 39.5 µM (inactive). The GI50 (OVCAR-5) was > 100 µM (inactive), the GI50 (PC-3) was 38.4 µM (inactive) and the GI50 (RPMI-8226) was > 100 µM (inactive). For the same compound, the GI50 (RXF 393) was > 100 µM (inactive), the GI50 (SF-268) was 70.6 µM (inactive) and the GI50 (SF-295) was > 100 µM (inactive). For the same compound, the GI50 (SK-MEL-28) was > 100 µM (inactive), the GI50 (SK-MEL-5) was 55 µM (inactive) and the GI50 (SN12C) was > 100 µM (inactive). The GI50 (SNB-19) was > 100 µM (inactive), the GI50 (SW-620) was > 100 µM (inactive) and the GI50 (U-251) was > 100 µM (inactive). The GI50 (UACC-257) was > 100 µM (inactive), the GI50 (UACC-62) was 75.2 µM (inactive) and the GI50 (UO-31) was 52.4 µM (inactive).
With `C#CCn1c(=O)c(I)cn(/C(=C\C(=O)OCC)C(=O)OCC)c1=O` the GI50 (A498) was 16.7 µM (inactive), the GI50 (A549) was 34.8 µM (inactive) and the GI50 (DU-145) was 17.5 µM (inactive). The GI50 (HOP-62) was 17.4 µM (inactive), the GI50 (Hs-578T) was 49.8 µM (inactive) and the GI50 (KM12) was 17.3 µM (inactive). The GI50 (MDA-MB-435) was 17.1 µM (inactive), the GI50 (NCI-H226) was 17.9 µM (inactive) and the GI50 (NCI-H460) was 20.3 µM (inactive). The GI50 (NCI/ADR-RES) was 26.1 µM (inactive), the GI50 (OVCAR-5) was 20.6 µM (inactive) and the GI50 (SF-295) was 18.7 µM (inactive). The GI50 (SF-539) was 18.4 µM (inactive), the GI50 (SK-MEL-2) was 18.9 µM (inactive) and the GI50 (SK-OV-3) was 17.9 µM (inactive). For the same compound, the GI50 (SNB-19) was 26.9 µM (inactive), the GI50 (SNB-75) was 17.1 µM (inactive) and the GI50 (U-251) was 15.7 µM (inactive). The GI50 (UACC-62) was 16.9 µM (inactive).
For `COc1cc(CNc2nc3cc(N)cc(N)c3nc2-c2ccccc2)cc(OC)c1`, the GI50 (RPMI-8226) was 2.2 µM (inactive) and the GI50 (UACC-257) was 26.1 µM (inactive).
